Results reported in ChEMBL document CHEMBL1201862, “PubChem BioAssay data set” (2004).
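Dose response: 5 concentrations. Exposure: 48 h. Format: 96-well plates. Endpoint: linear interpolation; highest concentration if not reached. Abbreviation: GI50, concentration required for 50% inhibition of growth.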 Active and inactive are the calls of the source. Cut-off read from the data, not from the text of the source: active = GI50 up to about 1.1 µM and inactive = higher.

How the values were obtained:
Experiment in all cases: NCI tumour cell line growth inhibition, 48 h
A498 = system: A498
ACHN = system: ACHN
HCC 2998 = system: HCC 2998
HCT-15 = system: HCT-15
HL-60 = system: HL-60
HOP-62 = system: HOP-62
M14 = system: M14
MCF7 = system: MCF7
MDA-MB-231 = system: MDA-MB-231
MDA-MB-435 = system: MDA-MB-435
Malme-3M = system: Malme-3M
NCI-H226 = system: NCI-H226
OVCAR-3 = system: OVCAR-3
OVCAR-5 = system: OVCAR-5
OVCAR-8 = system: OVCAR-8
SF-295 = system: SF-295
SK-MEL-5 = system: SK-MEL-5
SN12C = system: SN12C
SNB-19 = system: SNB-19
SNB-75 = system: SNB-75

SMILES | GI50 (A498) | GI50 (ACHN) | GI50 (HCC 2998) | GI50 (HCT-15) [µM] | GI50 (HL-60) | GI50 (HOP-62) | GI50 (M14) | GI50 (MCF7) | GI50 (MDA-MB-231) | GI50 (MDA-MB-435) | GI50 (Malme-3M) | GI50 (NCI-H226) | GI50 (OVCAR-3) | GI50 (OVCAR-5) | GI50 (OVCAR-8) | GI50 (SF-295) | GI50 (SK-MEL-5) | GI50 (SN12C) | GI50 (SNB-19) | GI50 (SNB-75)
C=C1C(C)C2C(Cc3ccccc3)NC(=O)C23C(OC(C)=O)/C=C/C(C)(O)CC(C)C/C=C/C3C1O (stereo not given) | 0.117 µM (active) | 0.492 µM (active) | 16.1 µM (inactive) | 2.7 | 5.02 µM (inactive) | 0.0435 µM (active) | 99.1 µM (inactive) | 6.56 µM (inactive) | 0.222 µM (active) | 32.9 µM (inactive) | 28.4 µM (inactive) | 0.728 µM (active) | 2.19 µM (inactive) | 70.6 µM (inactive) | 54.6 µM (inactive) | 0.21 µM (active) | 3.05 µM (inactive) | 44.3 µM (inactive) | 0.0863 µM (active) | 0.014 µM (active)
CC1C2Cc3ccc(O)cc3C1(C)CCN2C (stereo not given) | > 100 µM (inactive) | > 100 µM (inactive) | > 100 µM (inactive) | > 100 | > 100 µM (inactive) | > 100 µM (inactive) | > 100 µM (inactive) | > 100 µM (inactive) | > 100 µM (inactive) | > 100 µM (inactive) | > 100 µM (inactive) | > 100 µM (inactive) | > 100 µM (inactive) | > 100 µM (inactive) | > 100 µM (inactive) | > 100 µM (inactive) | > 100 µM (inactive) | > 100 µM (inactive) | > 100 µM (inactive) | 86.7 µM (inactive)
CN(C)CC(O)CNC(=O)Nc1ccccc1 (stereo not given) | > 100 µM (inactive) | > 100 µM (inactive) | > 100 µM (inactive) | > 100 | > 100 µM (inactive) | > 100 µM (inactive) | > 100 µM (inactive) | > 100 µM (inactive) | > 100 µM (inactive) | > 100 µM (inactive) | > 100 µM (inactive) | > 100 µM (inactive) | > 100 µM (inactive) | > 100 µM (inactive) | > 100 µM (inactive) | > 100 µM (inactive) | > 100 µM (inactive) | > 100 µM (inactive) | > 100 µM (inactive) | > 100 µM (inactive)
c1cc(-c2ccc(-c3nc4ccc(C5=NCCN5)cc4s3)s2)ccc1C1=NCCN1 | 0.719 µM (active) | 0.562 µM (active) | 0.0292 µM (active) | 2.17 | 0.394 µM (active) | 0.187 µM (active) | 0.912 µM (active) | 0.0372 µM (active) | 0.234 µM (active) | 0.841 µM (active) | 1.02 µM (active) | 0.308 µM (active) | 0.979 µM (active) | 0.444 µM (active) | 0.296 µM (active) | 0.301 µM (active) | 0.955 µM (active) | 0.172 µM (active) | 0.618 µM (active) | 0.222 µM (active)
CC1=C/C(=C(/c2ccc(O)c(C)c2)c2ccccc2C(=O)O)C=CC1=O | 18.7 µM (inactive) | 18.3 µM (inactive) | 19.1 µM (inactive) | 21.4 | 20.8 µM (inactive) | 19 µM (inactive) | 18.3 µM (inactive) | 19.7 µM (inactive) | 19.9 µM (inactive) | 17.6 µM (inactive) | 24.9 µM (inactive) | 23.1 µM (inactive) | 18 µM (inactive) | 21.2 µM (inactive) | 20 µM (inactive) | 21.8 µM (inactive) | 20.4 µM (inactive) | 19.6 µM (inactive) | 17.7 µM (inactive) | 18.5 µM (inactive)
